# Measured values from paper PMC9000887, “Novel 1,2,3-Triazole-Coumarin Hybrid Glycosides and Their Tetrazolyl Analogues: Design, Anticancer Evaluation and Molecular Docking Targeting EGFR, VEGFR-2 and CDK-2” (Molecules, 2022).
# Like-named read-outs stand apart in the source and are kept apart here.
# What was measured:
# [1] = test system: human pancreatic (Paca-2) cancer cell line; test: MTT cytotoxicity assay, Paca-2
# Experimental: (§2) After 48 h incubation, the medium was aspirated and then 40 μL MTT salt (2.5 mg/mL) was added for a further 4 h. […] Doxorubicin was used as the positive control and 0.5% DMSO was used as the negative control.
# [2] = test system: human colon (Caco-2) cancer cell line; details: Caco-2, 100 µM
# Experimental: as §2
# [3] = test system: human prostate (PC-3) cancer cell line; test: MTT cytotoxicity assay, PC-3
# Experimental: as §2
# [4] = test system: human melanoma (A-375) cancer cell line; test: MTT cytotoxicity assay, A-375
# Experimental: as §2
# [5] = test system: human melanoma (Mel-501) cancer cell line; test: MTT cytotoxicity assay, Mel-501; details: for IC50: read-out: IC50 (Mean ± SEM) Mel-501
# Experimental: as §2
# Paca-2 cells [6] = test: Cell cycle analysis by flow cytometry (PI staining); assay type: cell-based, human; details: Paca-2, 24 h at IC50 (10.7 μM)
# Experimental: (§1) Apoptosis investigation and cell cycle analysis were elucidated by flow cytometry. Paca-2 cells were seeded at 8 × 10^4 and incubated at 37 °C in 5% CO2 overnight. […] For cell cycle analysis, cell pellets were fixed with 70% ethanol on ice for 15 min and collected again. The pellets were incubated with propidium iodide (PI) staining solution at room temperature for 1 h and analysed by a Gallios flow cytometer (Beckman Coulter, Brea, CA, USA). Apoptosis detection was carried out by FITC AnnexinV/PI commercial kit (Becton Dickenson, Franklin Lakes, NJ, USA) following the manufacturer’s protocol. The samples were analysed by fluorescence-activated cell sorting (FACS) with a Gallios flow cytometer (Beckman Coulter, Brea, CA, USA) within 1 h after staining. Data were analysed using Kaluza v 1.2 (Beckman Coulter, Brea, CA, USA).
# CDK-2/cyclin A2 = CDK-2/cyclin A2 (Homo sapiens, UniProt P24941); test: In vitro kinase inhibitory assessment, CDK-2/cyclin A2 (ELISA); assay type: biochemical; details: mean of three values; read-out: IC50 (Mean ± SEM) CDK-2/Cyclin A2
# Experimental: Assay of CDK-2/cyclin A2 was achieved through ELISA using an affinity tag labelled capture antibody. Adding the samples and the standard to the wells was carried out after the addition of the antibody mix. After the incubation period, the unrestrained substance was discarded and the wells were washed. The added TMB (3,3′,5,5′-tetramethylbenzidine) substrate was prompted by Horseradish peroxidase (HRP) and blue coloration appeared. This reaction was stopped with the addition of stop solution to complete the change in colour from blue to yellow. The created signals were equivalent to the quantity of bound analyte and Robonik P2000 ELISA reader was used to record the intensity at a certain wavelength (450 nm). The concentrations of the screened compounds were calculated through the plotted curve.
# PD-1 = PD-1 protein level ELISA in Paca-2; assay type: cell-based, human; details: Paca-2, 24 h at IC50 (10.7 μM); untreated control 275.6 Pg/mL
# Experimental: Samples or standards were added to the wells Human PD-1 eliza kit (ab252360 Human PD-1, Abcam, Cambridge, MA, USA), followed by the antibody mix. After incubation, the wells were washed to remove unbound material. TMB Development Solution was added and during incubation was catalysed by HRP, generating blue coloration. This reaction was then stopped by the addition of Stop Solution, completing any colour change from blue to yellow. The optical density (OD) was measured at a wavelength of 450 ± 2 nm.
# Caspase-3 = Caspase-3 protein level ELISA in Paca-2; assay type: cell-based, human; details: Paca-2, 24 h at IC50 (10.7 μM)
# Description: The precoated micro-ELISA plate with an antibody specific to Caspase-3 was applied using the Human Caspase-3 ELISA Kit from Invitrogen INC. Catalog # KHO1091 (96 tests) (542 Flynn Road, Camarillo, CA, USA) according to the manufacturer’s instructions.
# EGFR = EGFR (Homo sapiens, UniProt P00533); test: In vitro kinase inhibitory assessment, EGFR (Kinase-Glo luminescence); assay type: biochemical; details: mean of three values; read-out: IC50 (Mean ± SEM) EGFR
# EGFR, sequence (P00533 25-1210): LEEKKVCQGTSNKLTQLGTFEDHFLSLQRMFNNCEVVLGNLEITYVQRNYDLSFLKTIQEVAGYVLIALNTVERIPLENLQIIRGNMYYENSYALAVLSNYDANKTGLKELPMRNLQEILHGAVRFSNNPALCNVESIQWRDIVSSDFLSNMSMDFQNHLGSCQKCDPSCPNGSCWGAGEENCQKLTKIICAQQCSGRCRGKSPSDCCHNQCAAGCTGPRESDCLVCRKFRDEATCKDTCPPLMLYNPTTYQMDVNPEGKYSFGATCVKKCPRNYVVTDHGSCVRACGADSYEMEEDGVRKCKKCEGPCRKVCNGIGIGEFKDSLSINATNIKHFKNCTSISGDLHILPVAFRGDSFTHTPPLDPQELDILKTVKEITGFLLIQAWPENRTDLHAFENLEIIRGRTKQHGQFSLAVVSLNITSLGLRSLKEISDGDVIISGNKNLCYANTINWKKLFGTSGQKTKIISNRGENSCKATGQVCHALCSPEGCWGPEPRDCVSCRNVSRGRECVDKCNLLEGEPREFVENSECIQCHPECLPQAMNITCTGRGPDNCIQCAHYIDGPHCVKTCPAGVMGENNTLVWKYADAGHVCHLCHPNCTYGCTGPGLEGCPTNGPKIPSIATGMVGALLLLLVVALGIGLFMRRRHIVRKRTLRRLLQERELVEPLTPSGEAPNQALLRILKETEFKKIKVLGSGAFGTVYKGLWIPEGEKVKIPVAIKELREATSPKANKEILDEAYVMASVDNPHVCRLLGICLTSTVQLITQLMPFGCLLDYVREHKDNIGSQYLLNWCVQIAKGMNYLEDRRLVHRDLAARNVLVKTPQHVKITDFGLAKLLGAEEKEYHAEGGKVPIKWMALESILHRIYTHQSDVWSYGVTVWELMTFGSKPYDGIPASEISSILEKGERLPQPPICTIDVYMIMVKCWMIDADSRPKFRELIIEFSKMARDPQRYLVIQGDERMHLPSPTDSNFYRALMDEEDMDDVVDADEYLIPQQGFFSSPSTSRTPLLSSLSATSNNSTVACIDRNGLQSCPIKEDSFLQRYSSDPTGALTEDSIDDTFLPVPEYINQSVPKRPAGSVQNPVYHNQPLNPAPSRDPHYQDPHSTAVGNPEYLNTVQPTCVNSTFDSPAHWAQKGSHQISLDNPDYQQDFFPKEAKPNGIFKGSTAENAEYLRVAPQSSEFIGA
# VEGFR-2 = VEGFR-2 (Homo sapiens, UniProt P35968); test: biochemical
# VEGFR-2, sequence (P35968 20-1356): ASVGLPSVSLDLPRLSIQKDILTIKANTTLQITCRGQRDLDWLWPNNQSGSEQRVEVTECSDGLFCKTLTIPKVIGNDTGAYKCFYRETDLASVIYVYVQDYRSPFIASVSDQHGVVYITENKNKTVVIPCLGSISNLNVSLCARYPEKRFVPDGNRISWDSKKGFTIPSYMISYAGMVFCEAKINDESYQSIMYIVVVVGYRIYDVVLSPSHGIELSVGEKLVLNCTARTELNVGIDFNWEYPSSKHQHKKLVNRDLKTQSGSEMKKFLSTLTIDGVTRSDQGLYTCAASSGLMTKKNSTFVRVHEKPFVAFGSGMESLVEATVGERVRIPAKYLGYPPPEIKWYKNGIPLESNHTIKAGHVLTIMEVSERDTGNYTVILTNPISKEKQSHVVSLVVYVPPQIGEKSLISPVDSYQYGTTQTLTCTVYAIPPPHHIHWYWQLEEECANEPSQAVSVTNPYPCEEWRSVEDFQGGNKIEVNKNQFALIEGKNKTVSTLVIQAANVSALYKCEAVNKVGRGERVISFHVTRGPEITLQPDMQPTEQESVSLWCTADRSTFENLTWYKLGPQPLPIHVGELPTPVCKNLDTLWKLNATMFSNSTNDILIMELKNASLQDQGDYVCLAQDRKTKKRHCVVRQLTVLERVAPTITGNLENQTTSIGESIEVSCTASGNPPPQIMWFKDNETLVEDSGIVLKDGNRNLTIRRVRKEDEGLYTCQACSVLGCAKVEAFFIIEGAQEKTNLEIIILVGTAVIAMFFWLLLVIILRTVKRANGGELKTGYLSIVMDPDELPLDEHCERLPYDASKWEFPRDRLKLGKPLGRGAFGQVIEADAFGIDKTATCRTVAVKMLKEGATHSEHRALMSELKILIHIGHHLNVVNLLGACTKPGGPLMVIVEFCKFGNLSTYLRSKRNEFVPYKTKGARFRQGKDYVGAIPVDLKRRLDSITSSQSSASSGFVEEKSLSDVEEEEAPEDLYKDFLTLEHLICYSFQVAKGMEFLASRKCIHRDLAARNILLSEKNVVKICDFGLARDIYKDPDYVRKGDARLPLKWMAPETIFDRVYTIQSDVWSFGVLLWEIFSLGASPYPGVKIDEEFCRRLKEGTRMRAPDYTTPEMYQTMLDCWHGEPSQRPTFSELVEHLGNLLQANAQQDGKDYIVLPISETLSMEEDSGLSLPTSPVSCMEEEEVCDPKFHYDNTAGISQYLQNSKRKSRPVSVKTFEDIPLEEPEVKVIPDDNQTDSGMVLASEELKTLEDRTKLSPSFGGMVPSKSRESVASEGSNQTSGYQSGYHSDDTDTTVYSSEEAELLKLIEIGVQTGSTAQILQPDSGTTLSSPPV
# Experimental: The cells were harvested, and the homogenates were prepared in saline using a tight pestle homogenizer until complete cell disruption. The kit used a double-antibody sandwich enzyme-linked immunosorbent assay (ELISA) to determine the level of human VEGFR-2 in samples. A monoclonal antibody for VEGFR-2 was pre-coated onto 96-well plates. The test samples were added to the wells and a biotinylated detection polyclonal antibody from goat specific for VEGFR-2 was added, subsequently followed by washing with PBS buffer. Avidin–Biotin–Peroxidase complex was added, and the unbound conjugates were washed away with PBS buffer. HRP substrate TMB was used to visualize HRP enzymatic reaction. TMB was catalysed by HRP to produce a blue colour product that changed into yellow after the addition of acidic stop solution. The density of yellow colour is proportional to the human VEGFR-2 amount of the sample captured in the plate. The chroma of colour and the concentration of the human VEGFR-2 of the samples were positively correlated and the optical density was determined at 450 nm. The level of human VEGFR-2 in samples was calculated (pg/mL) as duplicate determinations from the standard curve. The % inhibition was calculated in comparison to control untreated cells.
# Paca-2 cells [7] = test: Apoptosis detection, FITC Annexin V/PI flow cytometry; assay type: cell-based, human; details: Paca-2, 24 h at IC50 (10.7 μM); DMSO control 0.28%
# Experimental: as §1
# Cytochrome-c = Cytochrome-c ELISA in Paca-2; assay type: cell-based, human; details: Paca-2, 24 h at IC50 (10.7 μM); control 0.123 ng/mL
# Experimental: Cytochrome-c specific antibodies were precoated onto 96-well plates. Cytochrome-c were analysed by enzyme-linked immunosorbent assays (ELISAs) using commercial kits (ab119521; Abcam, Cambridge, MA, USA). The optimal dilutions were determined and ELISAs were performed according to the manufacturer’s instructions.
# Caspase-7 = Caspase-7 protein level ELISA in Paca-2; assay type: cell-based, human; details: Paca-2, 24 h at IC50 (10.7 μM)
# Experimental: The micro-ELISA plate provided in this kit was pre-coated with a Caspase-7-specific antibody. A biotinylated Caspase-7 antibody and Avidin–horseradish peroxidase (HRP) conjugate was added. The excess components were removed. The substrate solution was added. Wells containing Caspase-7, biotinylated detection antibody, and Avidin-HRP conjugate appeared blue in colour. The colour turned yellow following the addition of sulphuric acid solution. The optical density (OD) was measured at a wavelength of 450 ± 2 nm.
# [8] = test system: human colon (Caco-2) cancer cell line; test: MTT cytotoxicity assay, Caco-2
# Experimental: as §2
compound,measurement,setting,value
"4-Phenyl-7-((1-(2,3,4-tri-O-acetyl-β-D-xylopyranosyl)-2H-tetrazol-5-yl)methoxy)-2H-chromen-2-one [Compound 6]",% Inhibition Paca-2,"[1]; Paca-2, at 100 µM, MTT",72.1%
same,IC50,"[1]; read-out: IC50 (Mean ± SEM) Paca-2, Paca-2, MTT, 100 to 0.78 μM, three independent determinations",60 ± 1.4 µM
same,% Inhibition Caco-2,[2],-
same,% Inhibition PC-3,"[3]; PC-3, at 100 µM, MTT",9.1%
same,% Inhibition A-375,"[4]; A-375, at 100 µM, MTT",45.8%
same,% Inhibition Mel-501,"[5]; Mel-501, at 100 µM, MTT",71%
same,IC50,"[5]; Mel-501, MTT, three independent determinations",80.4 ± 2.1 µM
"O=c1cc(-c2ccccc2)c2ccc(OCc3nnn(CC(O)CO)n3)cc2o1 (centres unmarked) [Compound 10, 7-((2-(2,3-Dihydroxypropyl)-2H-tetrazol-5-yl)methoxy)-4-phenyl-2H-chromen-2-one]",increase of percentage of the cells at S phase compared to the control,Paca-2 cells [6],1.3 folds
same,increase of pre-G1 phase cells percentage compared to the control,Paca-2 cells [6],15.7 folds
same,IC50,CDK-2/cyclin A2,0.19 ± 0.05 µM
same,PD-1 level in treated cells,PD-1,91.4 pg/mL
same,upregulation of caspase-3 protein level,Caspase-3; versus control,2.8 fold
same,caspase-3 protein level in treated cells,Caspase-3; control 95.04 Pg/mL,266.8 pg/mL
same,inhibition at 100 µM,"[1]; Homo sapiens, PaCa-2, read-out: % Inhibition Paca-2",99.9%
same,IC50,"[1]; Homo sapiens, PaCa-2, read-out: IC50 (Mean ± SEM) Paca-2",10.7 ± 0.4 µM
same,IC50,EGFR,0.09 ± 0.21 µM
same,IC50,VEGFR-2,0.86 ± 0.25 µM
same,"late/secondary cellular apoptosis (PI / Annexin V-FITC, upper right quadrant)",Paca-2 cells [7],15.55%
same,cytochrome-c release into the cytosol of treated cells,Cytochrome-c,0.395 ng/mL
same,elevation of caspase-7 protein level,Caspase-7; versus control,4.3 fold
same,caspase-7 protein level in treated cells,Caspase-7; control 0.555 ng/mL,2.363 ng/mL
same,inhibition at 100 µM,"[3]; Homo sapiens, read-out: % Inhibition PC-3",99.2%
same,IC50,"[3]; Homo sapiens, read-out: IC50 (Mean ± SEM) PC-3",25.4 ± 0.5 µM
same,% Inhibition Caco-2,"[8]; Caco-2, at 100 µM, MTT, (-) No activity detected",99.6%
same,IC50,"[8]; read-out: IC50 (Mean ± SEM) Caco-2, Caco-2, MTT, three independent determinations",31.9 ± 0.7 µM
same,inhibition at 100 µM,"[4]; Homo sapiens, A-375, read-out: % Inhibition A-375",98.2%
same,IC50,"[4]; Homo sapiens, A-375, read-out: IC50 (Mean ± SEM) A-375",10.9 ± 0.1 µM
same,inhibition at 100 µM,"[5]; Homo sapiens, read-out: % Inhibition Mel-501",95.8%
same,IC50,[5]; Homo sapiens,8.8 ± 0.2 µM
